Each molecule was assayed against T1, HCV NS3-4A serine protease (full-length NS3-4A protein, genotype 1a, strain HCV-1) (Hepatitis C virus genotype 1a, UniProt P26664) (assay: HCV NS3-4A protease assay). Conditions: Protease IC50.
T1 construct: using the full-length NS3-4A protein (genotype 1a, strain HCV-1)
T1 sequence (P26664 1658-1711): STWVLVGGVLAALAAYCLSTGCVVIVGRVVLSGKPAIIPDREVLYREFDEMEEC
T1 sequence (P26664 1027-1657): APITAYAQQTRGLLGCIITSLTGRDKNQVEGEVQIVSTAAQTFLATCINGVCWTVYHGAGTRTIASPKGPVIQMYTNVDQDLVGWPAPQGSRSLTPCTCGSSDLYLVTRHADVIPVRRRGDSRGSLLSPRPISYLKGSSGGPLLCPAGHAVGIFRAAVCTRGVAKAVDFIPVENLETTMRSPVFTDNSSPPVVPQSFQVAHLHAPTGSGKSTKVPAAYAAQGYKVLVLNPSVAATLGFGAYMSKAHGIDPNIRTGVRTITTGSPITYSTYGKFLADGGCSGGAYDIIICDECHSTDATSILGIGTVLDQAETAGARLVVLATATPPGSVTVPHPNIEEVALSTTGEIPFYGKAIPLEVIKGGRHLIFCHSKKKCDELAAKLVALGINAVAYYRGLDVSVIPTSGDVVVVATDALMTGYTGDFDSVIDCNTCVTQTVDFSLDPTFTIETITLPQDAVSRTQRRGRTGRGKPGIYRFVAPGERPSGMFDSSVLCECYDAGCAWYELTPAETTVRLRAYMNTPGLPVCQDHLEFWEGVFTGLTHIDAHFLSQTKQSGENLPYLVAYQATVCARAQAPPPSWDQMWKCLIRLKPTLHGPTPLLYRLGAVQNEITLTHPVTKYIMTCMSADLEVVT
Format: biochemical
Experimental: The inhibitory activity of certain compounds of Table A against HCV NS3-4A serine protease is determined in a homogenous assay using the full-length NS3-4A protein (genotype 1a, strain HCV-1) and a commercially available internally-quenched fluorogenic peptide substrate as described by Taliani, M., et al. 1996 Anal. Biochem. 240:60-67, which is incorporated by reference in its entirety.
With `C=C[C@@H]1C[C@]1(NC(=O)[C@@H]1C[C@@]2(CN1C(=O)[C@@H](NC(=O)[C@@H](NC(=O)c1[nH]c(C)c(C)c1C(C)=O)C1CCCCC1)C(C)(C)C)C(C)(C)C21CCC1)C(=O)NS(=O)(=O)C1CC1` [Compound 118, (5R,8S)-7-[(2S)-2-{[(2S)-2-{[(3-acetyl-4,5-dimethyl-1H-pyrrol-2-yl)carbonyl]amino}-2-cyclohexylacetyl]amino}-3,3-dimethylbutanoyl]-N-{(1R,2S)-1-[(cyclopropylsulfonyl)carba-moyl]-2-vinylcyclopropyl}-10,10-dimethyl-7-azadispiro[3.0.4.1]decane-8-carboxamide] the IC50 was 1.4 nM. `C=C[C@@H]1C[C@]1(NC(=O)[C@@H]1C[C@@]2(CN1C(=O)[C@@H](NC(=O)[C@@H](NC(=O)C(C)(C)N1CCCCC1)C(C)(C)C)C(C)(C)C)C(C)(C)C21CCC1)C(=O)NS(=O)(=O)C1CC1` [Compound 119, (5R,8S)-N-{(1R,2S)-1-[(cyclopropylsulfonyl)carba-moyl]-2-vinylcyclopropyl}-7-[(2S)-2-({(2S)-3,3-dimethyl-2-[(2-methyl-2-piperidin-1-ylpropanoyl)amino]butanoyl}amino)-3,3-dimethylbutanoyl]-10,10-dimethyl-7-azadispiro[3.0.4.1]decane-8-carboxamide] was tested, and the IC50 was 3.5 nM. Molecule `C=C[C@@H]1C[C@]1(NC(=O)[C@@H]1C[C@@]2(CN1C(=O)[C@@H](NC(=O)[C@@H](NC(=O)c1nc3ccccc3[nH]1)C(C)(C)C)C(C)(C)C)C(C)(C)C21CCC1)C(=O)NS(=O)(=O)C1CC1` [Compound 120, (5R,8S)-7-[(2S)-2-({(2S)-2-[(1H-benzimidazol-2-ylcarbonyl)amino]-3,3-dimethylbutanoyl}amino)-3,3-dimethylbutanoyl]-N-{(1R,2S)-1-[(cyclopropylsulfonyl)carba-moyl]-2-vinylcyclopropyl}-10,10-dimethyl-7-azadispiro[3.0.4.1]decane-8-carboxamide] has an IC50 of 0.7 nM. For `C=C[C@@H]1C[C@]1(NC(=O)[C@@H]1C[C@@]2(CN1C(=O)[C@@H](NC(=O)[C@@H](NC(=O)c1ccno1)C(C)(C)C)C(C)(C)C)C(C)(C)C21CCC1)C(=O)NS(=O)(=O)C1CC1` [Compound 121, (5R,8S)-N-{(1R,2S)-1-[(cyclopropylsulfonyl)carba-moyl]-2-vinylcyclopropyl}-7-[(2S)-2-({(2S)-2-[(isoxazol-5-ylcarbonyl)amino]-3,3-dimethylbutanoyl}amino)-3,3-dimethylbutanoyl]-10,10-dimethyl-7-azadispiro[3.0.4.1]decane-8-carboxamide], the IC50 was 9 nM. With `C=C[C@@H]1C[C@]1(NC(=O)[C@@H]1C[C@@]2(CN1C(=O)[C@@H](NC(=O)[C@@H](NC(=O)c1ncc[nH]1)C(C)(C)C)C(C)(C)C)C(C)(C)C21CCC1)C(=O)NS(=O)(=O)C1CC1` [Compound 122, (5R,8S)-N-{(1R,2S)-1-[(cyclopropylsulfonyl)carba-moyl]-2-vinylcyclopropyl}-7-[(2S)-2-({(2S)-2-[(1H-imidazol-2-ylcarbonyl)amino]-3,3-dimethylbutanoyl}amino)-3,3-dimethylbutanoyl]-10,10-dimethyl-7-azadispiro[3.0.4.1]decane-8-carboxamide] the IC50 was 3 nM. `C=C[C@H]1C[C@@]1(NC(=O)C1C[C@@]2(CN1C(=O)[C@@H](NC(=O)[C@@H](NC(=O)C1CCN1C(C)(C)C)C(C)(C)C)C(C)(C)C)C(C)(C)C21CCC1)C(=O)NS(=O)(=O)C1CC1` (stereo partly drawn) [Compound 123, (5R)-7-[(2S)-2-{[(2S)-2-{[(1-tert-butylazetidin-2-yl)carbonyl]amino}-3,3-dimethylbutanoyl]amino}-3,3-dimethylbutanoyl]-N-{(1S,2R)-1-[(cyclopropylsulfonyl)carba-moyl]-2-vinylcyclopropyl}-10,10-dimethyl-7-azadispiro[3.0.4.1]decane-8-carboxamide] gave an IC50 of 6 nM. Molecule `C=C[C@@H]1C[C@]1(NC(=O)[C@@H]1C[C@@]2(CN1C(=O)[C@@H](NC(=O)C(NC(=O)c1ccccc1Nc1ccccc1)C1CCCCC1)C(C)(C)C)C(C)(C)C21CCC1)C(=O)NS(=O)(=O)C1CC1` (stereo partly drawn) [Compound 124, (5R,8S)-7-[(2S)-2-({[(2-anilinobenzoyl)amino](cyclo-hexyl)acetyl}amino)-3,3-dimethylbutanoyl]-N-{(1R,2S)-1-[(cyclopropylsulfonyl)carba-moyl]-2-vinylcyclopropyl}-10,10-dimethyl-7-azadispiro[3.0.4.1]decane-8-carboxamide] has an IC50 of 30 nM. `C=C[C@@H]1C[C@]1(NC(=O)[C@@H]1C[C@@]2(CN1C(=O)[C@@H](NC(=O)C(NC(=O)c1cc3ccccc3[nH]1)C1CCCCC1)C(C)(C)C)C(C)(C)C21CCC1)C(=O)NS(=O)(=O)C1CC1` (stereo partly drawn) [Compound 125, (5R,8S)-7-[(2S)-2-({cyclohexyl[(1H-indol-2-ylcarbonyl)amino]acetyl}amino)-3,3-dimethylbutanoyl]-N-{(1R,2S)-1-[(cyclopropylsulfonyl)carba-moyl]-2-vinylcyclopropyl}-10,10-dimethyl-7-azadispiro[3.0.4.1]decane-8-carboxamide] gave an IC50 of 1.5 nM. Work on `C=C[C@@H]1C[C@]1(NC(=O)[C@@H]1C[C@@]2(CN1C(=O)[C@@H](NC(=O)C(NC(=O)c1cc(C(C)(C)C)nn1C)C1CCCCC1)C(C)(C)C)C(C)(C)C21CCC1)C(=O)NS(=O)(=O)C1CC1` (stereo partly drawn) [Compound 126, (5R,8S)-7-[(2S)-2-{[{[(3-tert-butyl-1-methyl-1H-pyrazol-5-yl)carbonyl]amino}(cyclohex-yl)acetyl]amino}-3,3-dimethylbutanoyl]-N-{(1R,2S)-1-[(cyclopropylsulfonyl)carba-moyl]-2-vinylcyclopropyl}-10,10-dimethyl-7-azadispiro[3.0.4.1]decane-8-carboxamide] yielded an IC50 of 8 nM. Molecule `C=C[C@@H]1C[C@]1(NC(=O)[C@@H]1C[C@@]2(CN1C(=O)[C@@H](NC(=O)C(NC(=O)c1nccc3ccccc13)C1CCCCC1)C(C)(C)C)C(C)(C)C21CCC1)C(=O)NS(=O)(=O)C1CC1` (stereo partly drawn) [Compound 127, (5R,8S)-7-[(2S)-2-({cyclohexyl[(isoquinolin-1-ylcarbonyl)amino]acetyl}amino)-3,3-dimethylbutanoyl]-N-{(1R,2S)-1-[(cyclopropylsulfonyl)carba-moyl]-2-vinylcyclopropyl}-10,10-dimethyl-7-azadispiro[3.0.4.1]decane-8-carboxamide] has an IC50 of 8 nM. For `C=C[C@H]1C[C@@]1(NC(=O)[C@@H]1C[C@@]2(CN1C(=O)[C@@H](NC(=O)[C@@H](NC(=O)c1ccccc1N(C)C)C(C)(C)C)C(C)(C)C)C(C)(C)C21CCC1)C(=O)NS(=O)(=O)C1CC1` [Compound 130, (5R,8S)-N-{(1S,2R)-1-[(cyclopropylsulfonyl)carba-moyl]-2-vinylcyclopropyl}-7-[(2S)-2-{[(2S)-2-{[2-(dimethylamino)benzoyl]amino}-3,3-dimethylbutanoyl]amino}-3,3-dimethylbutanoyl]-10,10-dimethyl-7-azadispiro[3.0.4.1]decane-8-carboxamide], the IC50 was 5.5 nM. Molecule `C=C[C@@H]1C[C@]1(NC(=O)[C@@H]1C[C@@]2(CN1C(=O)[C@@H](NC(=O)[C@@H](NC(=O)[C@@H]1CCN1C(C)C)C(C)(C)C)C(C)(C)C)C(C)(C)C21CCC1)C(=O)NS(=O)(=O)C1CC1` [Compound 131, (5R,8S)-N-{(1R,2S)-1-[(cyclopropylsulfonyl)carba-moyl]-2-vinylcyclopropyl}-7-[(2S)-2-{[(2S)-2-({[(2S)-1-isopropylazetidin-2-yl]carbonyl}amino)-3,3-dimethylbutanoyl]amino}-3,3-dimethylbutanoyl]-10,10-dimethyl-7-azadispiro[3.0.4.1]decane-8-carboxamide] has an IC50 of 0.8 nM. For `C=C1CC(NC(=O)[C@@H]2C[C@@]3(CN2C(=O)[C@@H](NC(=O)[C@@H](NC(=O)[C@@H]2CCCCN2C(C)C)C(C)(C)C)C(C)(C)C)C(C)(C)C32CCC2)(C(=O)NS(=O)(=O)C2CC2)C1` [Compound 132, (5R,8S)-N-{1-[(cyclopropylsulfonyl)carba-moyl]-3-methylenecyclobutyl}-7-[(2S)-2-{[(2S)-2-({[(2S)-1-isopropylpiperidin-2-yl]carbonyl}amino)-3,3-dimethylbutanoyl]amino}-3,3-dimethylbutanoyl]-10,10-dimethyl-7-azadispiro[3.0.4.1]decane-8-carboxamide], the IC50 was 1300 nM. `CC(C)N1CCCC[C@H]1C(=O)N[C@H](C(=O)N[C@H](C(=O)N1C[C@]2(C[C@H]1C(=O)NC1(C(=O)NS(=O)(=O)C3CC3)CCC1)C(C)(C)C21CCC1)C(C)(C)C)C(C)(C)C` [Compound 133, (5R,8S)-N-{1-[(cyclopropylsulfonyl)carba-moyl]cyclobutyl}-7-[(2S)-2-{[(2S)-2-({[(2S)-1-isopropylpiperidin-2-yl]carbonyl}amino)-3,3-dimethylbutanoyl]amino}-3,3-dimethylbutanoyl]-10,10-dimethyl-7-azadispiro[3.0.4.1]decane-8-carboxamide] was tested, and the IC50 was 450 nM. Molecule `CC[C@@H]1C[C@]1(NC(=O)[C@@H]1C[C@@]2(CN1C(=O)[C@@H](NC(=O)[C@@H](NC(=O)c1cnccn1)C(C)(C)C)C(C)(C)C)C(C)(C)C21CCC1)C(=O)NS(=O)(=O)C1CC1` [Compound 134, (5R,8S)-N-{(1R,2R)-1-[(cyclopropylsulfonyl)carba-moyl]-2-ethylcyclopropyl}-7-[(2S)-2-({(2S)-3,3-dimethyl-2-[(pyrazin-2-ylcarbonyl)amino]butanoyl}amino)-3,3-dimethylbutanoyl]-10,10-dimethyl-7-azadispiro[3.0.4.1]decane-8-carboxamide] has an IC50 of 40 nM. In the case of `C=C[C@@H]1C[C@]1(NC(=O)[C@@H]1C[C@@]2(CN1C(=O)[C@@H](NC(=O)[C@@H](NC(=O)[C@H]1CCN1C(C)C)C(C)(C)C)C(C)(C)C)C(C)(C)C21CCC1)C(=O)NS(=O)(=O)C1CC1` [Compound 135, (5R,8S)-N-{(1R,2S)-1-[(cyclopropylsulfonyl)carba-moyl]-2-vinylcyclopropyl}-7-[(2S)-2-{[(2S)-2-({[(2R)-1-isopropylazetidin-2-yl]carbonyl}amino)-3,3-dimethylbutanoyl]amino}-3,3-dimethylbutanoyl]-10,10-dimethyl-7-azadispiro[3.0.4.1]decane-8-carboxamide], the IC50 is reported as 15 nM.

From US20110182850A1, “ORGANIC COMPOUNDS AND THEIR USES” (priority 2009, published 2011)
